Measured values reported in US20260356819A1, “OXOISOINDOLINYL-SUBSTITUTED […] DERIVATIVE AND USE THEREOF” (GLUETACS THERAPEUTICS (SHANGHAI) CO., LTD., priority 2023, published 2026).

How the values were obtained:
Assay type in all cases: cell-based
Conditions in all cases: compounds at 50 nM and 500 nM
[1] = biological target: T1, GSPT1 (Homo sapiens, UniProt P15170+Q96SW2); test: Western blot degradation of GSPT1 in hPBMCs (24 h)
T1 construct: The supernatant was aspirated as the extracted total cell protein; endogenous in cells; host or cells: human peripheral blood mononuclear cells (hPBMCs)
T1 sequence (P15170 whole entry): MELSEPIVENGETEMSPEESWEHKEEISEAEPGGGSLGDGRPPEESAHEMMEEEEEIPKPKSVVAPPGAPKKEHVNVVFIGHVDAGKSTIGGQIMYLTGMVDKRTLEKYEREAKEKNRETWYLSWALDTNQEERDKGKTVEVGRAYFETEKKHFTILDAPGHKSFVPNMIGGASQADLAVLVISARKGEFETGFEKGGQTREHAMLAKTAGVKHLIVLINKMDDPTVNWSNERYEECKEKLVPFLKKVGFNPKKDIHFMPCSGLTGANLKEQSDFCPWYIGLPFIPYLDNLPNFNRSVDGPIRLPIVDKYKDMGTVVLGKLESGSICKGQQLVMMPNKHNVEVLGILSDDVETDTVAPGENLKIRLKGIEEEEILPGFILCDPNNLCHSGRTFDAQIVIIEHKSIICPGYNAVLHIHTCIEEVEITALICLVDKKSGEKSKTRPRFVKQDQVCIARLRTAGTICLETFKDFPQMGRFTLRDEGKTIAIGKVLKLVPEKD
T1 sequence (Q96SW2 whole entry): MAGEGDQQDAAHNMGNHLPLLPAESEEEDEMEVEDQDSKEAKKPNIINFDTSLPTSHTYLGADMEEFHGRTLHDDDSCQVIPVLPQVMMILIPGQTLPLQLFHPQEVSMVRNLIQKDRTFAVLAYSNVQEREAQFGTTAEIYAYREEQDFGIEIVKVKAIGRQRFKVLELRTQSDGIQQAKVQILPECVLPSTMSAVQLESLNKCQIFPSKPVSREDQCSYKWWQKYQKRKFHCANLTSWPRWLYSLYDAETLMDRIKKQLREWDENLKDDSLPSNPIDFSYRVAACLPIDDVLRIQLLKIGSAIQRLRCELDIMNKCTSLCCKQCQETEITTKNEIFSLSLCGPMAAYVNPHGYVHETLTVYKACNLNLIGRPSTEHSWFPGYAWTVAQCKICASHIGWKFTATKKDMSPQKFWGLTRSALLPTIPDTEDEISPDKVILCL
T1 sequence (Q16531 whole entry partner): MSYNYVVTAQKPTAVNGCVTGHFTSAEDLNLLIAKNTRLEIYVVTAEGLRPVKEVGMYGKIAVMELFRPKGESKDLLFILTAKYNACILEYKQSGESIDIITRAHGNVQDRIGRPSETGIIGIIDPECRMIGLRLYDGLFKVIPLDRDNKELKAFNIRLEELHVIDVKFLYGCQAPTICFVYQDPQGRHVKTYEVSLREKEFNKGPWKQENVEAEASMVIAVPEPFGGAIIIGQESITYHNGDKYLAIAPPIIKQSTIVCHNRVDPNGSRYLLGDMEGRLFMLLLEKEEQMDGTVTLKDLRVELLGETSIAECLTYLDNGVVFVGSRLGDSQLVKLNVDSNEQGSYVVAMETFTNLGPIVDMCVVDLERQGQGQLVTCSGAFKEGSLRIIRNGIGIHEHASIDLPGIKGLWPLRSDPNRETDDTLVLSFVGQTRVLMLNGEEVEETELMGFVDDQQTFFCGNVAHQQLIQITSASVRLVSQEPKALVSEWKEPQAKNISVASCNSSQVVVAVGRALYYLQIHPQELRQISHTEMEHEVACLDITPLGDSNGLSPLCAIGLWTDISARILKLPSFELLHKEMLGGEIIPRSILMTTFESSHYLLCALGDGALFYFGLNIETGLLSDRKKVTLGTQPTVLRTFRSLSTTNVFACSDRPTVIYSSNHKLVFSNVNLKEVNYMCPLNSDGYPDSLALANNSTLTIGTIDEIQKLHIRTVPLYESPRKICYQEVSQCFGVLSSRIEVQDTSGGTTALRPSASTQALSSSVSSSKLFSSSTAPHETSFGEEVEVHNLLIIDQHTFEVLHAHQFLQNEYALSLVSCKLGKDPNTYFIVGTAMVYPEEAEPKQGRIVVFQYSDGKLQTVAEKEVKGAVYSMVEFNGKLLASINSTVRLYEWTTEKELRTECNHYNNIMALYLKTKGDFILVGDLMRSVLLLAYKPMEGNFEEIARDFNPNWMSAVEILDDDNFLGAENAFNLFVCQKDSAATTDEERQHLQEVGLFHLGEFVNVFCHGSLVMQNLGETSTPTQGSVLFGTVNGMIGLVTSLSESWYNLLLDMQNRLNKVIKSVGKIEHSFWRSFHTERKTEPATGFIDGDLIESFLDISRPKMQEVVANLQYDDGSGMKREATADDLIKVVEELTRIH
Summary of the method: (§1)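 Thawed human PBMCs, 1×10^6 cells/mL; cpd 50 nM or 500 nM, 24 h; RIPA lysis, BCA, SDS-PAGE, NC transfer, immunoblot. Readout: grayscale/internal control → % remaining; degradation = 1 − remaining.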

[2] = biological target: T2, WEE1 (Homo sapiens, UniProt P30291+Q96SW2); test: Western blot degradation of WEE1 in hPBMCs (24 h)
T2 construct: The supernatant was aspirated as the extracted total cell protein; endogenous in cells; host or cells: human peripheral blood mononuclear cells (hPBMCs)
T2 sequence (P30291 whole entry): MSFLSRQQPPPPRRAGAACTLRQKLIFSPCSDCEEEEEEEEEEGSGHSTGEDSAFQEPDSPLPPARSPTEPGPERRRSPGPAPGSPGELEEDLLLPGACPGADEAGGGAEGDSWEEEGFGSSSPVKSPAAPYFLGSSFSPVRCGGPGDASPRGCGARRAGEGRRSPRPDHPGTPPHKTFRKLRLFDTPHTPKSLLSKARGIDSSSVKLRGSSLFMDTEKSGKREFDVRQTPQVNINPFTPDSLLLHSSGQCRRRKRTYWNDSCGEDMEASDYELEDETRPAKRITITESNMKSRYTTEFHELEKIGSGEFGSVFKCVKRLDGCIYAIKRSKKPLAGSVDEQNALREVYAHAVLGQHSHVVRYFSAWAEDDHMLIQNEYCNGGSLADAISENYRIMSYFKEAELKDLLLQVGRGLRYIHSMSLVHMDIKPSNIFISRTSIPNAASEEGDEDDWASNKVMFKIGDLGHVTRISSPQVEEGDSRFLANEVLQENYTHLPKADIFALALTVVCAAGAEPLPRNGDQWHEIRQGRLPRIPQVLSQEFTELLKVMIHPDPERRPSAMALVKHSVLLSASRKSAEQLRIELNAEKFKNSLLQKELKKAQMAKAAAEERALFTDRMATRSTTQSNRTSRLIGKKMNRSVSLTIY
T2 sequence (Q96SW2 whole entry): as the sequence (Q96SW2 whole entry) above
T2 sequence (Q16531 whole entry partner): as the sequence (Q16531 whole entry partner) above
Summary of the method: as §1

[3] = biological target: T3, IKZF1 (Homo sapiens, UniProt Q13422+Q96SW2); test: Western blot degradation of IKZF1 in hPBMCs (24 h)
T3 construct: The supernatant was aspirated as the extracted total cell protein; endogenous in cells; host or cells: human peripheral blood mononuclear cells (hPBMCs)
Summary of the method: as §1

[4] = biological target: T4, IKZF3 (Homo sapiens, UniProt Q96SW2+Q9UKT9); test: Western blot degradation of IKZF3 in hPBMCs (24 h)
T4 construct: The supernatant was aspirated as the extracted total cell protein; endogenous in cells; host or cells: human peripheral blood mononuclear cells (hPBMCs)
T4 sequence (Q9UKT9 whole entry): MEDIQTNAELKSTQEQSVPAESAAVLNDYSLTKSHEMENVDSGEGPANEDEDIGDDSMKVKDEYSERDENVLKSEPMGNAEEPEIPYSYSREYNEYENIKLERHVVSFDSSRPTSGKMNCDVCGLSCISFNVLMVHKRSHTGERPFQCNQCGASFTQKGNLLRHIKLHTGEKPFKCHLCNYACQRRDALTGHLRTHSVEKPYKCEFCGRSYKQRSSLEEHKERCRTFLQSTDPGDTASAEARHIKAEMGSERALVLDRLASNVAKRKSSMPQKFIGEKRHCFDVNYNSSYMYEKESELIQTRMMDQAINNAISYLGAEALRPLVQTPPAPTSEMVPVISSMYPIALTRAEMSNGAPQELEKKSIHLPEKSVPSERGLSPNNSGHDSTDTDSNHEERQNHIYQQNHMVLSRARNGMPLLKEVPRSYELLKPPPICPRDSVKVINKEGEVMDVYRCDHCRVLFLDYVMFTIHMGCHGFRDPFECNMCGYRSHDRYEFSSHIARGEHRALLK
T4 sequence (Q96SW2 whole entry): as the sequence (Q96SW2 whole entry) above
T4 sequence (Q16531 whole entry partner): as the sequence (Q16531 whole entry partner) above
Summary of the method: as §1

[5] = biological target: T5, CK1α (Homo sapiens, UniProt P48729+Q96SW2); test: Western blot degradation of CK1α in hPBMCs (24 h)
T5 construct: The supernatant was aspirated as the extracted total cell protein; endogenous in cells; host or cells: human peripheral blood mononuclear cells (hPBMCs)
T5 sequence (P48729 whole entry): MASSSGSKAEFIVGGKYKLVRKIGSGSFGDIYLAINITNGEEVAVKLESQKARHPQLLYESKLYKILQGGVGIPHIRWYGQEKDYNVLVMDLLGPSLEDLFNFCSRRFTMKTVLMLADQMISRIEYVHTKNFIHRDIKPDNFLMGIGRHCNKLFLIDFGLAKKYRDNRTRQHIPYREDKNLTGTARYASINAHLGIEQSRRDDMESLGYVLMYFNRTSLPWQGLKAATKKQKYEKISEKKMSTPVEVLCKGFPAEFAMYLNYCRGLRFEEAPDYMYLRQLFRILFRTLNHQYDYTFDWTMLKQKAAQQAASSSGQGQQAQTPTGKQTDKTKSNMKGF
T5 sequence (Q96SW2 whole entry): as the sequence (Q96SW2 whole entry) above
T5 sequence (Q16531 whole entry partner): as the sequence (Q16531 whole entry partner) above
Summary of the method: as §1

[6] = biological target: T6, IKZF2 (Homo sapiens, UniProt Q96SW2+Q9UKS7); test: Western blot degradation of IKZF2 in hPBMCs (24 h)
T6 construct: The supernatant was aspirated as the extracted total cell protein; endogenous in cells; host or cells: human peripheral blood mononuclear cells (hPBMCs)
T6 sequence (Q9UKS7 whole entry): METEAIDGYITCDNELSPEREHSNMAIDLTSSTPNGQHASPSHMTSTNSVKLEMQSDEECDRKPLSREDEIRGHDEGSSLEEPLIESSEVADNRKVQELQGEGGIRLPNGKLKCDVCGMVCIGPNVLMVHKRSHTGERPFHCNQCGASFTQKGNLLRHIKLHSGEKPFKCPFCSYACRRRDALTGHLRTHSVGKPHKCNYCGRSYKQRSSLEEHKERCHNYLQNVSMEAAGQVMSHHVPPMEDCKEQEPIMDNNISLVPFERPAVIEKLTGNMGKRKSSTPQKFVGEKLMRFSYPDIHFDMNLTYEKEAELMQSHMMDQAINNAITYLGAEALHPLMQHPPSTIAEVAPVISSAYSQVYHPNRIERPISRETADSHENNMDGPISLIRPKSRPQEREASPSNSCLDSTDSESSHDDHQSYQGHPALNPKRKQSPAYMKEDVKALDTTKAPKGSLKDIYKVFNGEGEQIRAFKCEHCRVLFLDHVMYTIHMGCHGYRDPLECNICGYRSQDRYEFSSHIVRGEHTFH
T6 sequence (Q96SW2 whole entry): as the sequence (Q96SW2 whole entry) above
T6 sequence (Q16531 whole entry partner): as the sequence (Q16531 whole entry partner) above
Summary of the method: as §1

O=C1CCN(N2C(=O)c3ccc(CN4CCCN(C(c5ccccc5)c5ccccc5)CC4)cc3C2=O)C(=O)N1 [GT-07295, 5-((4-benzhydryl-1,4-diazepan-1-yl)methyl)-2-(2,4-dioxotetrahydropyrimidin-1(2H)-yl)isoindoline-1,3-dione]
GSPT1 substrate protein remaining % [1]: A (0% ≤ substrate protein remaining % ≤80%)
WEE1 substrate protein remaining % [2]: B (80%< substrate protein remaining % ≤100%)
IKZF1 substrate protein remaining % [3]: B (80%< substrate protein remaining % ≤100%)
IKZF3 substrate protein remaining % [4]: B (80%< substrate protein remaining % ≤100%)
CK1α substrate protein remaining % [5]: B (80%< substrate protein remaining % ≤100%)
IKZF2 substrate protein remaining % [6]: B (80%< substrate protein remaining % ≤100%)

Cc1nc(C2CCN(Cc3ccc4c(c3)C(=O)N(N3CCC(=O)NC3=O)C4=O)CC2)c2c(-c3ccccc3)csc2n1 [GT-08110, 2-(2,4-dioxotetrahydropyrimidin-1(2H)-yl)-5-((4-(2-methyl-5-phenylthieno[2,3-d]pyrimidin-4-yl)piperidin-1-yl)methyl)isoindoline-1,3-dione]
GSPT1 substrate protein remaining % [1]: A (0% ≤ substrate protein remaining % ≤80%)
WEE1 substrate protein remaining % [2]: A (0% ≤ substrate protein remaining % ≤80%)
IKZF1 substrate protein remaining % [3]: A (0% ≤ substrate protein remaining % ≤80%)
IKZF3 substrate protein remaining % [4]: A (0% ≤ substrate protein remaining % ≤80%)
CK1α substrate protein remaining % [5]: A (0% ≤ substrate protein remaining % ≤80%)
IKZF2 substrate protein remaining % [6]: A (0% ≤ substrate protein remaining % ≤80%)

O=C1CCN(N2C(=O)c3ccc(CN4CCN(CC5=C(c6ccc(F)cc6)CCCC5)CC4)cc3C2=O)C(=O)N1 [GT-07302, 2-(2,4-dioxotetrahydropyrimidin-1(2H)-yl)-5-((4-((4′-fluoro-3,4,5,6-tetrahydro-[1,1′-biphenyl]-2-yl)methyl)piperazin-1-yl)methyl)isoindoline-1,3-dione]
GSPT1 substrate protein remaining % [1]: B (80%< substrate protein remaining % ≤100%)
WEE1 substrate protein remaining % [2]: A (0% ≤ substrate protein remaining % ≤80%)
IKZF1 substrate protein remaining % [3]: B (80%< substrate protein remaining % ≤100%)
IKZF3 substrate protein remaining % [4]: B (80%< substrate protein remaining % ≤100%)
CK1α substrate protein remaining % [5]: B (80%< substrate protein remaining % ≤100%)
IKZF2 substrate protein remaining % [6]: B (80%< substrate protein remaining % ≤100%)

CC1(C)CCC(CN2CCN(Cc3ccc4c(c3)CN(N3CCC(=O)NC3=O)C4=O)C(C(F)(F)F)C2)=C(c2ccc(Cl)cc2)C1 (stereo not drawn) [GT-07296, 1-(5-((4-((4′-chloro-5,5-dimethyl-3,4,5,6-tetrahydro-[1,1′-biphenyl]-2-yl)methyl)-2-(trifluoromethyl)piperazin-1-yl)methyl)-1-oxoisoindolin-2-yl)dihydropyrimidine-2,4(1H,3H)-dione]
GSPT1 substrate protein remaining % [1]: A (0% ≤ substrate protein remaining % ≤80%)
WEE1 substrate protein remaining % [2]: A (0% ≤ substrate protein remaining % ≤80%)
IKZF1 substrate protein remaining % [3]: A (0% ≤ substrate protein remaining % ≤80%)
IKZF3 substrate protein remaining % [4]: B (80%< substrate protein remaining % ≤100%)
CK1α substrate protein remaining % [5]: A (0% ≤ substrate protein remaining % ≤80%)
IKZF2 substrate protein remaining % [6]: B (80%< substrate protein remaining % ≤100%)

O=C1CCN(N2C(=O)c3ccc(CN4CCC(N(c5ccccc5)c5ccccc5)CC4)cc3C2=O)C(=O)N1 [GT-05177, 2-(2,4-dioxotetrahydropyrimidin-1(2H)-yl)-5-((4-(diphenylamino)piperidin-1-yl)methyl)isoindoline-1,3-dione]
GSPT1 substrate protein remaining % [1]: A (0% ≤ substrate protein remaining % ≤80%)
WEE1 substrate protein remaining % [2]: B (80%< substrate protein remaining % ≤100%)
IKZF1 substrate protein remaining % [3]: B (80%< substrate protein remaining % ≤100%)
IKZF3 substrate protein remaining % [4]: B (80%< substrate protein remaining % ≤100%)
CK1α substrate protein remaining % [5]: B (80%< substrate protein remaining % ≤100%)
IKZF2 substrate protein remaining % [6]: B (80%< substrate protein remaining % ≤100%)

Cc1ccsc1C1CCN(Cc2ccc3c(c2)CN(N2CCC(=O)NC2=O)C3=O)CC1 [GT-07305, 1-(5-((4-(3-methylthiophen-2-yl)piperidin-1-yl)methyl)-1-oxoisoindolin-2-yl)dihydropyrimidine-2,4(1H,3H)-dione]
GSPT1 substrate protein remaining % [1]: A (0% ≤ substrate protein remaining % ≤80%)
WEE1 substrate protein remaining % [2]: B (80%< substrate protein remaining % ≤100%)
IKZF1 substrate protein remaining % [3]: B (80%< substrate protein remaining % ≤100%)
IKZF3 substrate protein remaining % [4]: A (0% ≤ substrate protein remaining % ≤80%)
CK1α substrate protein remaining % [5]: B (80%< substrate protein remaining % ≤100%)
IKZF2 substrate protein remaining % [6]: A (0% ≤ substrate protein remaining % ≤80%)

O=C1CCN(N2Cc3cc(CN4CC5CCC4CN5C(c4ccccc4)c4ccccc4)ccc3C2=O)C(=O)N1 (stereo not drawn) [GT-06450, 1-(5-((5-benzhydryl-2,5-diazabicyclo[2.2.2]octan-2-yl)methyl)-1-oxoisoindolin-2-yl)dihydropyrimidine-2,4(1H,3H)-dione]
GSPT1 substrate protein remaining % [1]: A (0% ≤ substrate protein remaining % ≤80%)
WEE1 substrate protein remaining % [2]: A (0% ≤ substrate protein remaining % ≤80%)
IKZF1 substrate protein remaining % [3]: B (80%< substrate protein remaining % ≤100%)
IKZF3 substrate protein remaining % [4]: A (0% ≤ substrate protein remaining % ≤80%)
CK1α substrate protein remaining % [5]: B (80%< substrate protein remaining % ≤100%)
IKZF2 substrate protein remaining % [6]: A (0% ≤ substrate protein remaining % ≤80%)

O=C1CCN(N2Cc3cc(CN4C5CC4CN(c4cccc(Cl)c4Cl)C5)ccc3C2=O)C(=O)N1 [GT-05162, 1-(5-((3-(2,3-dichlorophenyl)-3,6-diazabicyclo[3.1.1]heptan-6-yl)methyl)-1-oxoisoindolin-2-yl)dihydropyrimidine-2,4(1H,3H)-dione]
GSPT1 substrate protein remaining % [1]: A (0% ≤ substrate protein remaining % ≤80%)
WEE1 substrate protein remaining % [2]: B (80%< substrate protein remaining % ≤100%)
IKZF1 substrate protein remaining % [3]: B (80%< substrate protein remaining % ≤100%)
IKZF3 substrate protein remaining % [4]: A (0% ≤ substrate protein remaining % ≤80%)
CK1α substrate protein remaining % [5]: B (80%< substrate protein remaining % ≤100%)
IKZF2 substrate protein remaining % [6]: B (80%< substrate protein remaining % ≤100%)

O=C1CCN(N2C(=O)c3ccc(CN4CCC(=C5CCOc6cc(F)ccc65)CC4)cc3C2=O)C(=O)N1 [GT-07685, 2-(2,4-dioxotetrahydropyrimidin-1(2H)-yl)-5-((4-(7-fluorochroman-4-ylidene)piperidin-1-yl)methyl)isoindoline-1,3-dione]
GSPT1 substrate protein remaining % [1]: A (0% ≤ substrate protein remaining % ≤80%)
WEE1 substrate protein remaining % [2]: B (80%< substrate protein remaining % ≤100%)
IKZF1 substrate protein remaining % [3]: B (80%< substrate protein remaining % ≤100%)
IKZF3 substrate protein remaining % [4]: B (80%< substrate protein remaining % ≤100%)
CK1α substrate protein remaining % [5]: B (80%< substrate protein remaining % ≤100%)
IKZF2 substrate protein remaining % [6]: B (80%< substrate protein remaining % ≤100%)

Cc1sc2ncnc(N3CCCN(Cc4ccc5c(c4)C(=O)N(N4CCC(=O)NC4=O)C5=O)CC3)c2c1C [GT-08095, 5-((4-(5,6-dimethylthieno[2,3-d]pyrimidin-4-yl)-1,4-diazepan-1-yl)methyl)-2-(2,4-dioxotetrahydropyrimidin-1(2H)-yl)isoindoline-1,3-dione]
GSPT1 substrate protein remaining % [1]: B (80%< substrate protein remaining % ≤100%)
WEE1 substrate protein remaining % [2]: A (0% ≤ substrate protein remaining % ≤80%)
IKZF1 substrate protein remaining % [3]: B (80%< substrate protein remaining % ≤100%)
IKZF3 substrate protein remaining % [4]: B (80%< substrate protein remaining % ≤100%)
CK1α substrate protein remaining % [5]: A (0% ≤ substrate protein remaining % ≤80%)
IKZF2 substrate protein remaining % [6]: B (80%< substrate protein remaining % ≤100%)

O=C1CCN(N2C(=O)c3ccc(CN4CC=C(c5ncnc6scc(-c7ccccc7)c56)CC4)cc3C2=O)C(=O)N1 [GT-08431, 2-(2,4-dioxotetrahydropyrimidin-1(2H)-yl)-5-((4-(5-phenylthieno[2,3-d]pyrimidin-4-yl)-3,6-dihydropyridin-1(2H)-yl)methyl)isoindoline-1,3-dione]
GSPT1 substrate protein remaining % [1]: B (80%< substrate protein remaining % ≤100%)
WEE1 substrate protein remaining % [2]: A (0% ≤ substrate protein remaining % ≤80%)
IKZF1 substrate protein remaining % [3]: B (80%< substrate protein remaining % ≤100%)
IKZF3 substrate protein remaining % [4]: B (80%< substrate protein remaining % ≤100%)
CK1α substrate protein remaining % [5]: B (80%< substrate protein remaining % ≤100%)
IKZF2 substrate protein remaining % [6]: A (0% ≤ substrate protein remaining % ≤80%)

Cc1ccc(N2CCN(Cc3ccc4c(c3)C(=O)N(N3CCC(=O)NC3=O)C4=O)CC2)s1 [GT-05309, 2-(2,4-dioxotetrahydropyrimidin-1(2H)-yl)-5-((4-(5-methylthiophen-2-yl)piperazin-1-yl)methyl)isoindoline-1,3-dione]
GSPT1 substrate protein remaining % [1]: A (0% ≤ substrate protein remaining % ≤80%)
WEE1 substrate protein remaining % [2]: B (80%< substrate protein remaining % ≤100%)
IKZF1 substrate protein remaining % [3]: B (80%< substrate protein remaining % ≤100%)
IKZF3 substrate protein remaining % [4]: B (80%< substrate protein remaining % ≤100%)
CK1α substrate protein remaining % [5]: B (80%< substrate protein remaining % ≤100%)
IKZF2 substrate protein remaining % [6]: B (80%< substrate protein remaining % ≤100%)
